Experimental data published in patent US20090042983A1, “Use of L-carnitine for the treatment of cardiovascular diseases” (Sigma-Tau Industrie Farmaceutiche Riunite S.p.A., priority 2003, published 2009).

Key:
[1] = test system: perfused heart; conditions: cited from earlier work
[2] = test system: acute myocardial infarction; conditions: 40 mg/kg/day (2.8 g/day); cited from earlier work
[3] = test system: patients with acute myocardial infarction; conditions: 3 grams every 8 hours (9 grams a day) intravenous for 48 hours; symptoms within 8 hours; 351 patients; cited from earlier work
[4] = test system: patients affected by anterior acute myocardial infarction; conditions: cited from earlier work
[5] = test system: patients with acute myocardial infarction; test: Multicentre double-blind placebo-controlled randomised clinical trial of L-carnitine on mortality (Example 1); format: in vivo, human
Experimental: A clinical trial was conducted in order to evaluate the effect of the administration of L-carnitine on the incidence of mortality and heart failure in the short and long term in patients with acute myocardial infarction. The acute myocardial infarction has not localized within a specific region of the organ but it could be located anywhere in the heart. The trial design was that of a multicentre, parallel-group, double-blind, placebo-controlled, randomised trial.
A total of 2,296 male and female patients aged below 80 years were recruited. The study compound, L-carnitine, was administered at a dose of 9 g/day i.v. for the first 5 days and 4 g/day by mouth from day 6 to day 180.
Concomitant therapies were given according to the procedures adopted in local clinical practice.
The efficacy endpoints of the trial consisted in the reduction of mortality and heart failure.
• Typical chest pain lasting>30 minutes, not resolved by the oral or intravenous administration of nitrates; • ECG with ST segment deviation≧0.2 mV in D, and aVL and/or in two or more contiguous precordial leads; • Time interval elapsing from onset of symptoms to trial randomisation<12 hours; • Age<80 years; • Written informed consent.
• Pregnancy or breast-feeding; • Haemodynamically significant valvulopathy; • Hypertrophic or dilated cardiomyopathy; • Congenital heart disease; • Clinically severe liver or kidney disease; • Alcohol abuse; • Other diseases associated with a poor life expectancy; • Conditions making poor compliance with treatment and/or periodic visits likely; • Inclusion in another trial.

[6] = test system: cardiac ischaemia; conditions: dogs, cardiac ischaemia model; cited from earlier work

SMILES	lactate levels [1]	postischemic cardiac contraction amplitude [1]	release of LDH [1]	reserve of high-energy phosphate [1]	coronary flow ([1]; postischemic)	difference between patients treated within 4 hours and more than 4 hours after onset of infarct symptoms [2]	mortality vs control group at 7 days after the start of treatment [3]	left ventricular dilation in the first year after infarction ([4]; anterior acute myocardial infarction)	deaths during the hospitalisation period ([4]; treated group, L-carnitine within 24 hours from onset of chest pain, 14 in control group, 472 patients in total)	NUMBER OF DEATHS AT: 1 mos ([5]; 9 g/day i.v. first 5 days, 4 g/day by mouth day 6 to 180, at 1 mos)	NUMBER OF DEATHS AT: 2 mos ([5]; 9 g/day i.v. first 5 days, 4 g/day by mouth day 6 to 180, at 2 mos)	NUMBER OF DEATHS AT: 6 mos ([5]; 9 g/day i.v. first 5 days, 4 g/day by mouth day 6 to 180, at 6 mos)	NUMBER OF DEATHS AT: 12 mos ([5]; 9 g/day i.v. first 5 days, 4 g/day by mouth day 6 to 180, at 12 mos)	RR (Relative Risk) of death at 1 mos ([5]; L-carnitine vs placebo, at 1 mos)	RR (Relative Risk) of death at 2 mos ([5]; L-carnitine vs placebo, at 2 mos)	RR (Relative Risk) of death at 6 mos ([5]; L-carnitine vs placebo, at 6 mos)	RR (Relative Risk) of death at 12 mos ([5]; L-carnitine vs placebo, at 12 mos)	reduction in deaths at the other observation times ([5]; vs placebo, 3 and 7 days, 1, 2, 6, 12 mos)	reduction in deaths after 5 days' treatment ([5]; vs placebo, after 5 days' treatment (P<0.05))	cardiac lipid metabolism [6]
C[N+](C)(C)C[C@H](O)CC(=O)[O-].O=C(O)/C=C/C(=O)O [L-carnitine fumarate]	lower lactate levels	greater	reduced release of LDH	higher reserve of high-energy phosphate	greater	–	–	–	–	–	–	–	–	–	–	–	–	–	–	–
C[N+](C)(C)C[C@H](O)CC(=O)[O-] [L-carnitine]	–	–	–	–	–	no significant difference	no significant difference	significant attenuation of left ventricular dilation	11	45	53	64	67	0.78	0.81	0.86	0.89	significant reductions	statistically significant reduction in deaths	active in improving cardiac lipid metabolism
